This data set can be described thus: Incorporation of 13C-labeled dicarboxylic acid anions in metabolic processes, determined by exhalation of 13CO2 in rats. The note with it: aqueous solution by pipette, amount equivalent to 1 mg of acid anion, air collected 12 hours after administration, 13C-labeled compounds. As for the experimental part:
The signal incorporation in metabolism was determined by exhalation of the labeled ^13C atom in the form of ^13CO2. The experiment was conducted as follows: aqueous solutions, in the amounts equivalent to 1 mg of the acids anions they contained, were administered to rats (groups of 8 individuals, each rat weighing 225-250 g) with a pipette: amber acid, sodium fumarate (fumaric acid is almost insoluble in water), aspartic acids, Ca(SucH)2, Mg(SucH)2.4H2O, Mg(AspH)2.4H2O, Zn(FumH)2.0.5H2O, Zn(FumH)2.H2O. The animals were then quickly placed in a hermetically sealed chamber. The air from the chamber was sampled in the same amount as it was pumped in the chamber. […] After that, the mass % of 13C administer was calculated in the exhaled air.
For the compound `O.O.O.O.O=C([O-])CCC(=O)O.O=C([O-])CCC(=O)O.[Mg+2]` [Mg(SucH)2.4H2O, Acidic Magnesium Succinate], the “mass % of 13C administered found in the exhaled air (as 13CO2)” value (“mass % of 13C administered found” below) turned out to be 47.7%.

For `O=C([O-])/C=C/C(=O)[O-].[Na+].[Na+]` [sodium fumarate, reference compound], the “mass % of 13C administered found” value worked out at 97.8%.

As to `N[C@@H](CC(=O)[O-])C(=O)O.N[C@@H](CC(=O)[O-])C(=O)O.O.O.O.O.[Mg+2]` [Mg(AspH)2.4H2O, Acidic Magnesium Aspartate], the “mass % of 13C administered found” value turned out to be 47.4%.
